Measurements as given in BindingDB's records for doi:10.1016/s0960-894x(99)00094-3 (Cold Spring Harbor Laboratory, 1999).
pIC50: −log10 of the molar value.

How the values were obtained:
[1] = Compound was evaluated for concentration that caused 50% inhibition of yeast Farnesyltransferase (expressed as a GST fusion protein in Escherichia coli)
[2] = Compound was evaluated for concentration that caused 50% inhibition of bovine Farnesyltransferase

pIC50 [1] | pIC50 [2] | SMILES
5.30 | – | CSCC[C@H](NC(=O)[C@@H]1CC[C@@H]2CC[C@](Cc3ccccc3)(NC(=O)[C@H](CS)NC(=O)OCC3c4ccccc4-c4ccccc43)C(=O)N21)C(=O)O [(S)-2-({(3S,6R,8aR)-6-Benzyl-6-[(R)-2-(9H-fluoren-9-ylmethoxycarbonylamino)-3-mercapto-propionylamino]-5-oxo-octahydro-indolizine-3-carbonyl}-amino)-4-methylsulfanyl-butyric acid]
– | < 3.70 | CSCCC(NC(=O)[C@@H]1CC[C@@H]2CC[C@](Cc3ccccc3)(NC(=O)[C@@H](N)CS)C(=O)N21)C(=O)O (stereo partly drawn) [(S)-2-{[(3S,6R,8aR)-6-((R)-2-Amino-3-mercapto-propionylamino)-6-benzyl-5-oxo-octahydro-indolizine-3-carbonyl]-amino}-4-methylsulfanyl-butyric acid]
6.52 | 7.68 | CSCC[C@H](NC(=O)[C@H](Cc1ccccc1)NC[C@@H](NC[C@@H](N)CS)C(C)C)C(=O)O [N-[2(S)-[2(R)-amino-3-mercaptopropylamino]-3-methylbutyl]-Phe-Met-OH]
– | < 3.70 | CSCC[C@H](NC(=O)[C@@H]1CC[C@@H]2CCC[C@H](NC(=O)[C@H](N)CS)C(=O)N21)C(=O)O [(S)-2-{[(3S,6S,9aS)-6-((S)-2-Amino-3-mercapto-propionylamino)-5-oxo-octahydro-pyrrolo[1,2-a]azepine-3-carbonyl]-amino}-4-methylsulfanyl-butyric acid]
